Laboratory results as given in PubChem BioAssay (NCI).
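Test compounds were applied to cells in 96-well plates for 48 hours at 5 doses. The concentration for 50% growth inhibition is given as GI50. TGI: concentration producing complete growth inhibition.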

Tests used:
Assay in all cases: NCI anticancer screen, dose series, 48 h; in the data active means GI50 below about 0.43 µM; inactive means the rest
NCI-H226 lung = tested on: NCI-H226 lung
NCI-H23 lung = tested on: NCI-H23 lung
NCI-H460 lung = tested on: NCI-H460 lung
NCI/ADR-RES ovarian = tested on: NCI/ADR-RES ovarian
OVCAR-3 ovarian = tested on: OVCAR-3 ovarian
OVCAR-4 ovarian = tested on: OVCAR-4 ovarian
OVCAR-5 ovarian = tested on: OVCAR-5 ovarian
OVCAR-8 ovarian = tested on: OVCAR-8 ovarian
PC-3 prostate = tested on: PC-3 prostate
RPMI-8226 leukemia = tested on: RPMI-8226 leukemia
SF-268 CNS = tested on: SF-268 CNS
SF-295 CNS = tested on: SF-295 CNS
SF-539 CNS = tested on: SF-539 CNS
SK-MEL-2 melanoma = tested on: SK-MEL-2 melanoma
SK-MEL-28 melanoma = tested on: SK-MEL-28 melanoma
SK-MEL-5 melanoma = tested on: SK-MEL-5 melanoma
SK-OV-3 ovarian = tested on: SK-OV-3 ovarian
SN12C renal = tested on: SN12C renal
SNB-19 CNS = tested on: SNB-19 CNS
SNB-75 CNS = tested on: SNB-75 CNS
SR leukemia = tested on: SR leukemia
SW-620 colon = tested on: SW-620 colon
T-47D breast = tested on: T-47D breast
TK-10 renal = tested on: TK-10 renal
U251 CNS = tested on: U251 CNS
UACC-257 melanoma = tested on: UACC-257 melanoma
UACC-62 melanoma = tested on: UACC-62 melanoma
UO-31 renal = tested on: UO-31 renal

COC(=O)[C@H](C)NC(=O)[C@@H](OC)[C@@H]1Cc2cc3cc(OC4CC(OC5CC(O)C(O)C(C)O5)C(O)C(C)O4)c(C)c(O)c3c(O)c2C(=O)[C@H]1OC1CC(OC2CC(OC3CC(C)(O)C(O)C(C)O3)C(O)C(C)O2)C(O)C(C)O1 (stereo not given in full)
495 nM: TGI (NCI-H226 lung)
inactive: GI50 (NCI/ADR-RES ovarian) 12300 nM
774 nM: TGI (SNB-75 CNS)
846 nM: TGI (UACC-257 melanoma)
351 nM: TGI (SK-MEL-28 melanoma)
3090 nM: TGI (UO-31 renal)
active: GI50 (NCI-H23 lung) 93.9 nM | GI50 (NCI-H460 lung) 34.4 nM | GI50 (OVCAR-3 ovarian) 118 nM | GI50 (OVCAR-4 ovarian) 163 nM | GI50 (OVCAR-5 ovarian) 158 nM | GI50 (OVCAR-8 ovarian) 46.1 nM | GI50 (PC-3 prostate) 184 nM | GI50 (RPMI-8226 leukemia) 100 nM | GI50 (SF-268 CNS) 92 nM | GI50 (SF-295 CNS) 88.5 nM | GI50 (SF-539 CNS) 47.8 nM | GI50 (SK-MEL-2 melanoma) 90.8 nM | GI50 (SK-MEL-28 melanoma) 30.9 nM | GI50 (SK-MEL-5 melanoma) 35.8 nM | GI50 (SK-OV-3 ovarian) 359 nM | GI50 (SN12C renal) 101 nM | GI50 (SNB-19 CNS) 132 nM | GI50 (SNB-75 CNS) 91.1 nM | GI50 (SR leukemia) 27.1 nM | GI50 (SW-620 colon) 116 nM | GI50 (T-47D breast) 143 nM | GI50 (TK-10 renal) 336 nM | GI50 (U251 CNS) 73 nM | GI50 (UACC-257 melanoma) 52 nM | GI50 (UACC-62 melanoma) 41.7 nM | GI50 (UO-31 renal) 182 nM
7410 nM: TGI (OVCAR-3 ovarian)
355 nM: TGI (SK-MEL-5 melanoma)
> 50000 nM: TGI (NCI-H23 lung) | TGI (NCI-H460 lung) | TGI (NCI/ADR-RES ovarian) | TGI (OVCAR-5 ovarian) | TGI (OVCAR-8 ovarian) | TGI (PC-3 prostate) | TGI (SF-268 CNS) | TGI (SF-295 CNS) | TGI (SK-OV-3 ovarian) | TGI (SN12C renal) | TGI (SNB-19 CNS) | TGI (SR leukemia) | TGI (SW-620 colon) | TGI (T-47D breast) | TGI (TK-10 renal) | TGI (U251 CNS)
2620 nM: TGI (SF-539 CNS)
3430 nM: TGI (OVCAR-4 ovarian)
588 nM: TGI (SK-MEL-2 melanoma)
1890 nM: TGI (RPMI-8226 leukemia)
171 nM: TGI (UACC-62 melanoma)
